Reference: patent US8440637B2, “Combination treatment for the treatment of hepatitis C virus infection” (priority 2007, dated 2013)
Strand notation (5' to 3'): a small letter for the sugar, then the base; units joined by * are phosphorothioate-linked, units joined directly phosphodiester-linked; [ ] holds rarer units or linkages, { } end groups; capitals alone tell only the bases. l = locked nucleic acid (LNA); [5mC] = 5-methylcytosine; d = 2'-deoxy (DNA)

Experiments:
[1] = test system: miR-122a; assay: Melting temperature (Tm) of LNA anti-miR/miR-122a RNA duplex; type: physicochemical, human; settings: Table 2; towards synthetic miR-122a RNA oligonucleotide with phosphorothioate linkages; PS backbone
Method: The melting temperatures were assessed towards the mature miR-122a sequence, using a synthetic miR-122a RNA oligonucleotide with phosphorothioate linkaged.
The LNA anti-miR/miR-122a oligo duplex was diluted to 3 μM in 500 μl RNase free H2O, which was then mixed with 500 μl 2× dimerization buffer (final oligo/duplex conc. 1.5 μM, 2× Tm buffer: 200 mM NaCl, 0.2 mM EDTA, 20 mM NaP, pH 7.0, DEPC treated to remove RNases). The mix was first heated to 95 degrees for 3 minutes, then allowed to cool at room temperature (RT) for 30 minutes.
Following RT incubation Tm was measured on Lambda 40 UV/VIS Spectrophotometer with peltier temperature progammer PTP6 using PE Templab software (Perkin Elmer). The temperature was ramped up from 20° C. to 95° C. and then down again to 20° C., continuously recording absorption at 260 nm. First derivative and local maximums of both the melting and annealing was used to assess melting/annealing point (Tm), both should give similar/same Tm values. For the first derivative 91 points was used to calculate the slope.

[2] = test system: miR-122a; assay: miR-122a level in transfected Huh-7 cells by miR-122a specific qRT-PCR; type: cell-based, human; settings: transfected at 1 and 100 nM, 24 hours after transfection
Method: The miR-122a expressing cell line Huh-7 was transfected with LNA anti-miR5 at 1 and 100 nM concentrations according to optimized lipofectamine 2000 (LF2000, Invitrogen) protocol (as follows).
Huh-7 cells were cultivated in Eagles MEM with 10% FBS, 2 mM Glutamax I, 1× non-essential amino acids, Gentamicin 25 μg/ml. The cells were seeded in 6-well plates (300000 cells per well), in a total vol. of 2.5 ml the day before transfection. At the day of transfection a solution containing LF2000 diluted in Optimem (Invitrogen) was prepared (1.2 ml optimem+3.75 μl LF2000 per well, final 2.5 μg LF2000/ml, final tot vol 1.5 ml).
LNA Oligonucleotides (LNA anti-miRs) were also diluted in optimem. 285 μl optimem+15 μl LNA oligonucleotide (10 μM oligonucleotide stock for final concentration 100 nM and 0.1 μM for final concentration 1 nM) Cells were washed once in optimem then the 1.2 ml optimem/LF2000 mix were added to each well. Cells were incubated 7 min at room temperature in the LF2000 mix where after the 300 μl oligonucleotide optimem solution was added. […]
miR-122a levels in the RNA samples were assessed on an ABI 7500 Fast real-time PCR instrument (Applied Biosystems, USA) using a miR-122a specific qRT-PCR kit, mirVana (Ambion, USA) and miR-122a primers (Ambion, USA). […]

[3] = test system: miR-122a; assay: miR-122a levels in mouse liver by microRNA specific qPCR; type: in vivo; settings: hypercholesterolemic and normal mice; 5 mg/kg i.p. twice weekly for 5½ weeks
Method: Total RNA was extracted from liver samples as described above and analysed for miR-122a levels by microRNA specific QPCR.
In vivo study: Ten groups of animals (female C57/BL6; 3 mice per group) were treated in the following manner. Group 1 animals were injected with 0.2 ml saline by i.p. on day 0, day 2 and day 4. Groups 2-10 were dosed by i.p. with three different conc. (25 mg/kg, 5 mg/kg and 1 mg/kg) of either LNA antimiR-122a/SEQ ID NO: 61 (group 2-4), LNA antimir-122a/SEQ ID NO: 66 (group 5-7) or LNA antimir-122a/SEQ ID NO: 63 (group 8-10); the LNA antimir-122a sequences are given in the Table 1. All three LNA antimiR-122a oligonucleotides target the liver-specific miR-122a. The doses were calculated from the Day 0 body weights of each animal.
The animals were sacrificed 48 hours after last dose (Day 6), retro-orbital blood was collected in tubes containing EDTA and the plasma fraction harvested and stored frozen −80° C. for cholesterol analysis. At sacrifice livers were dissected and one portion was cut into 5 mm cubes and immersed in 5 volumes of ice-cold RNAlater. A second portion was snap frozen in liquid nitrogen and stored for cryo-sectioning.
Total RNA was extracted from liver samples using Trizol reagent according to the manufacturer's recommendations (Invitrogen, USA) and analysed for miR-122a levels by microRNA-specific QPCR according to the manufacturer's recommendations (Ambion, USA). […]
NMRI female mice were treated with indicated doses of LNA-antimiR (SEQ ID NO: 61) along with a mismatch control (m, SEQ ID NO: 65), saline and antagomir (SPC3595) for three consecutive days and sacrificed 24 hours after last dose (as in example 11 “old design”, n=5). miR-122 levels were analyzed by qPCR and normalized to the saline treated group.
(§1) C57BL/6J female mice were fed on high fat diet for 13 weeks before the initiation of the SEQ ID NO: 63 treatment. […] Both hypercholesterolemic and normal mice were treated i.p. twice weekly with 5 mg/kg SEQ ID NO: 63 and the corresponding mismatch control for a study period of 5½ weeks. Blood samples were collected weekly and total plasma cholesterol was measured during the entire course of the study. Upon sacrificing the mice, liver and blood samples were prepared for total RNA extraction, miRNA and mRNA quantification, assessment of the serum transaminase levels, and liver histology.
The miR-122 and let-7a microRNA levels were quantified with TaqMan microRNA Assay (Applied Biosystems) following the manufacturer's instructions. The RT reaction was diluted ten times in water and subsequently used for real time PCR amplification according to the manufacturer's instructions. A two-fold cDNA dilution series from liver total RNA of a saline-treated animal or mock transfected cells cDNA reaction (using 2.5 times more total RNA than in samples) served as standard to ensure a linear range (Ct versus relative copy number) of the amplification. Applied Biosystems 7500 or 7900 real-time PCR instrument was used for amplification.

[4] = test system: miR-122; assay: Total plasma cholesterol in hypercholesterolemic and normal mice, long-term treatment; type: in vivo, mouse; settings: hypercholesterolemic and normal mice; 5 mg/kg i.p. twice weekly
Method: as §1
C57BL/6J female mice (Taconic M&B Laboratory Animals, Ejby, Denmark) were used. All substances were formulated in physiological saline (0.9% NaCl) to final concentration allowing the mice to receive an intraperitoneal injection volume of 10 ml/kg.
In the diet induced obesity study, the mice received a high fat (60EN %) diet (D12492, Research Diets) for 13 weeks to increase their blood cholesterol level before the dosing started. The dose regimen was stretched out to 5½ weeks of 5 mg/kg LNA-antimiR™ twice weekly. Blood plasma was collected once a week during the entire dosing period. After completion of the experiment the mice were sacrificed and RNA extracted from the livers for further analysis. Serum was also collected for analysis of liver enzymes.
Immediately before sacrifice retro-orbital sinus blood was collected in EDTA-coated tubes followed by isolation of the plasma fraction. Total plasma cholesterol was analysed using ABX Pentra Cholesterol CP (Horiba Group, Horiba ABX Diagnostics) according to the manufacturer's instructions.

[5] = test system: miR-122a target genes (Bckdk, aldolase A, Nrdg3, CD320, Vldlr); assay: miR-122a target mRNA levels in mouse liver by qPCR; type: in vivo; settings: 5 mg/kg i.p. twice weekly for 5½ weeks

Substance | Tm (° C.) [1] | inhibition of miR-122a (in words) [2] | miR-122 levels in liver after long-term treatment (in words) [3] | effect on plasma cholesterol levels (in words) [4] | de-repression of direct miR-122 target genes (AldoA and Bckdk) after long-term treatment (in words) [5]
5′-CcAttCTgaCcCtAC-3′ (antisense l[5mC]*dC*lA*dT*dT*l[5mC]*lT*dG*dA*l[5mC]*dC*l[5mC]*dT*lA*l[5mC]) [SEQ ID NO: 64, reference compound] | 32 °C | not found to inhibit miR-122a |  |  | 
mismatch control: the corresponding mismatch control to SEQ ID NO: 63 in Example 31; probably SEQ ID NO: 64 (antisense l[5mC]*dC*lA*dT*dT*l[5mC]*lT*dG*dA*l[5mC]*dC*l[5mC]*dT*lA*l[5mC]) [reference compound] |  |  | had an effect on miR-122 levels | did not affect the plasma cholesterol levels | did not result in any functional de-repression
